Experimental findings from patent US20250353891A1 (MEDIMMUNE LIMITED, priority 2022, published 2025) are described below.

By pEC50 is commonly meant −log10 of the EC50, conventionally taken in molar units.

pEC50: −log10 of the molar value. Starred links: 1 amine or outer side, 2 acyl side, 3 side chain; linkers in the order of their positions; H or OH if unused. Non-standard residues stand in square brackets, D forms with d. Residues, ends and D or L forms follow the SMILES beside them. Groups on a side chain read outwards from the residue. *: point of attachment. C18 diacid = O=C(O)CCCCCCCCCCCCCCCCC(=O)*; γGlu = O=C(O)[C@H](CCC(=O)[*:2])N[*:1]; Palmitoyl = CCCCCCCCCCCCCCCC(=O)*; αMeF = C[C@](N)(Cc1ccccc1)C(=O)O; Myristoyl = CCCCCCCCCCCCCC(=O)*; αMeS = C[C@](N)(CO)C(=O)O; PEG2 = NCCOCCOCCC(=O)O; AEEA = NCCOCCOCC(=O)O; Aib = CC(C)(N)C(=O)O

Assay [1] has as its target human GLP-1 receptor (hGLP-1R) (Homo sapiens, UniProt P43220). Nature of the assay: cAMP production (HTRF) in CHO cells expressing hGLP-1R. Set-up: expressed in transfected cells. Conditions: for % Relative Potency Ratio: Table 6, % GLP-1R activity relative to GLP-1 / % GlucR activity relative to glucagon. The assay is classed as cell-based. A digest of the protocol: (§1)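 Potency values represent EC50 from 4-parameter logistic curves of HTRF % Delta F signal. Receptor-expressing CHO cells (hGCGR 2×10^5 cells/mL, hGLP-1R 1×10^5 cells/mL) were exposed for 30 min at room temperature before two-step cAMP detection.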
Background: cAMP levels reflect the balance of adenylyl cyclase and phosphodiesterase activity.

The target of assay [2] is human glucagon receptor (hGCGR) (Homo sapiens, UniProt P47871). Nature of the assay: cAMP production (HTRF) in CHO cells expressing hGCGR. The assay is classed as cell-based. Set-up: expressed in transfected cells. Conditions: Table 6, peptides modified at position 17; cAMP in CHO hGCGR cells; geometric mean; read-out: hGluc-R EC50. In outline: as §1
Chain of human glucagon receptor (hGCGR) (P47871 26-477): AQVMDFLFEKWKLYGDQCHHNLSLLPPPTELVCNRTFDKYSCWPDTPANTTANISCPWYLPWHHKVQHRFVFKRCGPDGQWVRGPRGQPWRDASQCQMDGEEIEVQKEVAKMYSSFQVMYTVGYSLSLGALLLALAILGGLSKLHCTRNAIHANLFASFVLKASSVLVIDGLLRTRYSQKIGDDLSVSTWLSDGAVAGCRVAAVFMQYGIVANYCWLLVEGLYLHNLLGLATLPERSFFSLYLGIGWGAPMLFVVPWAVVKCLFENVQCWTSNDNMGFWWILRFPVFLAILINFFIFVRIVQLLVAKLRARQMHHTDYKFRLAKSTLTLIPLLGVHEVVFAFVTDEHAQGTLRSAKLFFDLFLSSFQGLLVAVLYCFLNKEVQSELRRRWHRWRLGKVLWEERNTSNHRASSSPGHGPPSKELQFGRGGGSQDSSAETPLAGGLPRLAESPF

Chain of human GLP-1 receptor (hGLP-1R) (P43220 24-463): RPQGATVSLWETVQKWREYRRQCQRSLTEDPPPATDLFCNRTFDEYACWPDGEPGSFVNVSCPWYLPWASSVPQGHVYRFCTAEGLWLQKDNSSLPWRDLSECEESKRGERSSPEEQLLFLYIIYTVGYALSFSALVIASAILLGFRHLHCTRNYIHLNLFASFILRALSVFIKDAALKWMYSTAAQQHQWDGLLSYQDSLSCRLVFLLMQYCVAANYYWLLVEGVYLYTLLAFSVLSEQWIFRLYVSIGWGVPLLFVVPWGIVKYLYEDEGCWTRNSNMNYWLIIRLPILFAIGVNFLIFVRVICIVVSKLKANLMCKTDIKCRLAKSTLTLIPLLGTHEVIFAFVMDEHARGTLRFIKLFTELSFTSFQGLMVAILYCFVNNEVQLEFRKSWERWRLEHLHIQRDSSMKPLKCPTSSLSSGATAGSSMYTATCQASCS

`CCCCCCCCCCCCCCCC(=O)N[C@@H](CCC(=O)NCCOCCOCCC(=O)NCCOCCOCCC(=O)NCCCC[C@H](NC(=O)[C@H](CO)NC(=O)[C@H](CC(=O)O)NC(=O)[C@H](CC(C)C)NC(=O)[C@@H](NC(=O)[C@H](CCCCN)NC(=O)[C@H](CO)NC(=O)[C@@H](NC(=O)[C@H](CC(=O)O)NC(=O)[C@H](CO)NC(=O)[C@@H](NC(=O)[C@](C)(Cc1ccccc1)NC(=O)[C@H](CO)NC(=O)CNC(=O)[C@H](CCC(N)=O)NC(=O)[C@](C)(CO)NC(=O)[C@@H](N)Cc1c[nH]cn1)[C@@H](C)O)C(C)C)[C@@H](C)CC)C(=O)N[C@@H](C)C(=O)N[C@@H](C)C(=O)N[C@@H](CCC(N)=O)C(=O)N[C@@H](CC(=O)O)C(=O)N[C@@](C)(Cc1ccccc1)C(=O)N[C@H](C(=O)N[C@@H](CCC(N)=O)C(=O)NC(C)(C)C(=O)N[C@H](C(=O)N[C@H](C(=O)N[C@@H](CC(N)=O)C(=O)N[C@H](C(N)=O)[C@@H](C)O)[C@@H](C)CC)[C@@H](C)CC)C(C)C)C(=O)O` [Peptide 134] (H-H[αMeS]QGS[αMeF]TSDVSKILDSK([PEG2-PEG2-γGlu-Palmitoyl])AAQD[αMeF]VQ[Aib]IINT-NH2; N-terminus assumed): the “% Relative Potency Ratio” value in assay [1] was determined as 50.1. Also, in assay [2], the negative-log EC50 (pEC50) was 10.82.

For the compound `CCCCCCCCCCCCCC(=O)N[C@@H](CCC(=O)NCCOCCOCCC(=O)NCCOCCOCCC(=O)NCCCC[C@H](NC(=O)[C@H](CO)NC(=O)[C@H](CC(=O)O)NC(=O)[C@H](CC(C)C)NC(=O)[C@@H](NC(=O)[C@H](CCCCN)NC(=O)[C@H](CO)NC(=O)[C@@H](NC(=O)[C@H](CC(=O)O)NC(=O)[C@H](CO)NC(=O)[C@@H](NC(=O)[C@](C)(Cc1ccccc1)NC(=O)[C@H](CO)NC(=O)CNC(=O)[C@H](CCC(N)=O)NC(=O)[C@](C)(CO)NC(=O)[C@@H](N)Cc1c[nH]cn1)[C@@H](C)O)C(C)C)[C@@H](C)CC)C(=O)N[C@@H](C)C(=O)N[C@@H](C)C(=O)N[C@@H](CCC(N)=O)C(=O)N[C@@H](CC(=O)O)C(=O)N[C@@](C)(Cc1ccccc1)C(=O)N[C@H](C(=O)N[C@@H](CCC(N)=O)C(=O)NC(C)(C)C(=O)N[C@H](C(=O)N[C@H](C(=O)N[C@@H](CC(N)=O)C(=O)N[C@H](C(N)=O)[C@@H](C)O)[C@@H](C)CC)[C@@H](C)CC)C(C)C)C(=O)O` [Peptide 135] (H-H[αMeS]QGS[αMeF]TSDVSKILDSK([PEG2-PEG2-γGlu-Myristoyl])AAQD[αMeF]VQ[Aib]IINT-NH2; N-terminus assumed), the “% Relative Potency Ratio” value in assay [1] stood at 72.8. The pEC50 in assay [2] was 10.82.

On to `CC(C)C[C@H](NC(=O)[C@H](CC(C)C)NC(=O)[C@H](Cc1c[nH]c2ccccc12)NC(=O)[C@H](CCCNC(=N)N)NC(=O)[C@@H](NC(=O)[C@H](Cc1ccccc1)NC(=O)[C@H](CC(=O)O)NC(=O)[C@H](CCC(N)=O)NC(=O)[C@H](C)NC(=O)[C@H](CCCNC(=N)N)NC(=O)[C@H](CCCCNC(=O)CC[C@H](NC(=O)CC[C@H](NC(=O)COCCOCCNC(=O)COCCOCCNC(=O)CC[C@H](NC(=O)CC[C@H](NC(=O)CCCCCCCCCCCCCCCCC(=O)O)C(=O)O)C(=O)O)C(=O)O)C(=O)O)NC(=O)[C@H](CO)NC(=O)[C@H](CC(=O)O)NC(=O)[C@H](CC(C)C)NC(=O)[C@](C)(Cc1ccccc1)NC(=O)[C@H](CCCCN)NC(=O)[C@H](CO)NC(=O)[C@@H](NC(=O)[C@H](CC(=O)O)NC(=O)[C@H](CO)NC(=O)[C@@H](NC(=O)[C@H](Cc1ccccc1)NC(=O)[C@@H](NC(=O)CNC(=O)[C@H](CCC(N)=O)NC(=O)C(C)(C)NC(=O)[C@@H](N)Cc1c[nH]cn1)[C@@H](C)O)[C@@H](C)O)C(C)C)C(C)C)C(=O)N[C@@H](CCC(=O)O)C(=O)NCC(=O)NC(C)(C)C(=O)O` [Peptide 137] (H-H[Aib]QGTFTSDVSK[αMeF]LDSK([γGlu-γGlu-AEEA-AEEA-γGlu-γGlu-C18 diacid])RAQDFVRWLLEG[Aib]-OH; N-terminus assumed), for which the pEC50 was 9.84 in assay [1] (Table 6, peptides modified at position 17, cAMP in CHO hGLP-1R cells, geometric mean, read-out: hGLP-1R EC50) and 9.57 in assay [2]. For the same compound, the “% Relative Potency Ratio” value in assay [1] is reported as 3.7.
